In paper PMC4687525, “Drosophila Avoids Parasitoids by Sensing Their Semiochemicals via a Dedicated Olfactory Circuit” (PLoS Biology, 2015):

Target: T1, Or85f (Drosophila melanogaster, UniProt Q9VHE6)
T1 construct: full-length receptor, UAS-Or85f transgene expressed in mutant ab3A neuron lacking Or22a (delta-halo empty neuron); endogenous Orco; with Odorant receptor coreceptor
T1 sequence (Q9VHE6 1-392): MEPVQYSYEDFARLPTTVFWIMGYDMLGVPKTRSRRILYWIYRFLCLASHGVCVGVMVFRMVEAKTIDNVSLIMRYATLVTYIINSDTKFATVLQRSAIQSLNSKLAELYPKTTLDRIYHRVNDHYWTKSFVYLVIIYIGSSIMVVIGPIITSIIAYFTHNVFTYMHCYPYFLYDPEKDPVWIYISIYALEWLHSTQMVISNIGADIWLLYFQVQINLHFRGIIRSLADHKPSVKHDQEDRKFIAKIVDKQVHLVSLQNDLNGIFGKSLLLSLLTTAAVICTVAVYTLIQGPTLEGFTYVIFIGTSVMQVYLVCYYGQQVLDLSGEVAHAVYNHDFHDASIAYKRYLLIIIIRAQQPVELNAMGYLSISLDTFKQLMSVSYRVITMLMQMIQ
T1 sequence (Q9VNB5 1-486 partner): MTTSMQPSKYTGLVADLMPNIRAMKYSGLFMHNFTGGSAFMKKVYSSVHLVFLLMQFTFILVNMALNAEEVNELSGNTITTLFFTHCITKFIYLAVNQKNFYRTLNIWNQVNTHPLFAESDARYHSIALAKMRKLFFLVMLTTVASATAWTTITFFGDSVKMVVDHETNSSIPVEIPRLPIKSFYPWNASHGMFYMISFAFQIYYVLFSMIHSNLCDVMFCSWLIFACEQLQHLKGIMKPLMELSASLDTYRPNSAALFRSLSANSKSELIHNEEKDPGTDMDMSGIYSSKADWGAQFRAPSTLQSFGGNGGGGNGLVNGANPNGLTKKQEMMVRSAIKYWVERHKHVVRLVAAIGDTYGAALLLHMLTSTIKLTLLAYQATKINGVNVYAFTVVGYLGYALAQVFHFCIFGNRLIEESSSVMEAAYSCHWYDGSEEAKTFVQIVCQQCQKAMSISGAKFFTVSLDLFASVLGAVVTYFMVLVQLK
Assay: GC-coupled single sensillum recording, empty neuron (ab3A)
Assay type: cell-based
Conditions: agonist

[1] = reference sample described as racemic

Structure (SMILES)	GC-coupled single sensillum recording, empty neuron (ab3A) [1]	GC-coupled single sensillum recording, empty neuron (ab3A)
CC1=CO[C@@H](O)[C@@H]2[C@@H]1CC[C@@H]2C (racemic) [1R4aS7S7aS-nepetalactol]	1S4aR7R7aS, 1R4aS7S7aS-nepetalactol and their enantiomers) activated OSNs expressing Or85f	–
CC1=CO[C@H](O)[C@H]2[C@H](C)CC[C@@H]12 (racemic) [1S4aR7R7aS-nepetalactol]	1S4aR7R7aS, 1R4aS7S7aS-nepetalactol and their enantiomers) activated OSNs expressing Or85f	–
Cc1cncc2c1CC[C@H]2C [(R)-actinidine]	–	When we tested OSNs misexpressing Or85f, they became activated by (R)-actinidine and nepetalactol
